According to patent publication US8952024B2, “Herbicidal pyrimidone derivatives” (E I du Pont de Nemours and Company, priority 2009, dated 2015):

What was measured:
Format in all cases: in vivo
[1] = test system: barnyardgrass (Echinochloa crus-galli); experiment: Test B flooded paddy test; details: for Plant response rating, Barnyardgrass: Flood (flooded paddy test), 13 to 15 days
How it was run: (§1)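 Each compound is added to standing floodwater (3 cm above soil, maintained) in pots of 2-leaf-stage plants; greenhouse exposure lasts 13–15 d before visual comparison with controls on a 0–100 control scale.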

[2] = test system: ducksalad (Heteranthera limosa); experiment: Test B flooded paddy test; details: for Plant response rating, Ducksalad: Flood (flooded paddy test), 13 to 15 days
How it was run: as §1

[3] = test system: umbrella sedge (Cyperus difformis); experiment: Test B flooded paddy test; details: for Plant response rating, Sedge, Umbrella: Flood (flooded paddy test), 13 to 15 days
How it was run: as §1

rice (Oryza sativa) = experiment: Test B flooded paddy test; details: for Plant response rating, Rice: Flood (flooded paddy test), 13 to 15 days
How it was run: as §1

[4] = test system: cocklebur (Xanthium strumarium); experiment: Test B pre-/postemergence plant response
Source text: (§2) Seeds of plant species selected from blackgrass (Alopecurus myosuroides), downy bromegrass (Bromus tectorum), green foxtail (Setaria viridis), Italian ryegrass (Lolium multiflorum), wheat (Triticum aestivum), wild oat (Avena fatua), deadnettle (henbit deadnettle, Lamium amplexicaule), galium (catchweed bedstraw, Galium aparine), bermudagrass (Cynodon dactylon), Surinam grass (Brachiaria decumbens), cocklebur (Xanthium strumarium), corn (Zea mays), large crabgrass (Digitaria sanguinalis), woolly cupgrass (Eriochloa villosa), giant foxtail (Setaria faberii), goosegrass (Eleusine indica), johnsongrass (Sorghum halepense), kochia (Kochia scoparia), lambsquarters (Chenopodium album), morningglory (Ipomoea coccinea), nightshade (eastern black nightshade, Solanum ptycanthum), yellow nutsedge (Cyperus esculentus), pigweed (Amaranthus retroflexus), ragweed (common ragweed, Ambrosia elatior), Russian thistle (Salsola kali), soybean (Glycine max), sunflower (common oilseed sunflower, Helianthus annuus) and velvetleaf (Abutilon theophrasti) were planted into a blend of loam soil and sand and treated preemergence with test compounds formulated in a non-phytotoxic solvent mixture which included a surfactant.
(§3) At the same time, plants selected from these crop and weed species and also winter barley (Hordeum vulgare), canarygrass (Phalaris minor), chickweed (Stellaria media) and windgrass (Apera spica-venti) were planted in pots containing Redi-Earth® planting medium (Scotts Company, 14111 Scottslawn Road, Marysville, Ohio 43041) comprising spaghnum peat moss, vermiculite, wetting agent and starter nutrients and treated with postemergence applications of some of the test chemicals formulated in the same manner. Plants ranged in height from 2 to 18 cm (1- to 4-leaf stage) for postemergence treatments.
(§4) Treated plants and controls were maintained in a greenhouse for 13 to 15 days, after which time all treated plants were visually evaluated and compared to controls. Plant response ratings, summarized in Table B, are based on a scale of 0 to 100 where 0 is no effect and 100 is complete control. A dash (-) response means no test result.

wild oat (Avena fatua) = experiment: Test B pre-/postemergence plant response
Source text: as §2, §3, §4

[5] = test system: bermudagrass (Cynodon dactylon); experiment: Test B pre-/postemergence plant response
Source text: as §2, §3, §4

[6] = test system: lambsquarters (Chenopodium album); experiment: Test B pre-/postemergence plant response
Source text: as §2, §3, §4

[7] = test system: green foxtail (Setaria viridis); experiment: Test B pre-/postemergence plant response
Source text: as §2, §3, §4

[8] = test system: pigweed (Amaranthus retroflexus); experiment: Test B pre-/postemergence plant response
Source text: as §2, §3, §4

[9] = test system: giant foxtail (Setaria faberii); experiment: Test B pre-/postemergence plant response
Source text: as §2, §3, §4

soybean (Glycine max) = experiment: Test B pre-/postemergence plant response
Source text: as §2, §3, §4

corn (Zea mays) = experiment: Test B pre-/postemergence plant response
Source text: as §2, §3, §4

[10] = test system: johnsongrass (Sorghum halepense); experiment: Test B pre-/postemergence plant response
Source text: as §2, §3, §4

[11] = test system: ragweed (common ragweed, Ambrosia elatior); experiment: Test B pre-/postemergence plant response
Source text: as §2, §3, §4

kochia (Kochia scoparia) = experiment: Test B pre-/postemergence plant response
Source text: as §2, §3, §4

[12] = 250 g ai/ha, flooded paddy test, visual rating on 0 to 100 scale (0 no effect, 100 complete control) after 13 to 15 days
[13] = 62 g ai/ha, scale of 0 to 100 where 0 is no effect and 100 is complete control
[14] = 125 g ai/ha, scale 0 to 100, 0 is no effect, 100 is complete control
[15] = Flood, 31 g ai/ha, scale 0 to 100 (0 no effect, 100 complete control)
[16] = 31 g ai/ha, postemergence, scale 0 to 100, 0 is no effect, 100 is complete control
[17] = 62 g ai/ha, postemergence, 0 is no effect, 100 is complete control, 13 to 15 days
[18] = Postemergence, 125 g ai/ha, visual rating after 13 to 15 days, scale 0 (no effect) to 100 (complete control)
[19] = Postemergence, 250 g ai/ha, scale 0 to 100 (0 no effect, 100 complete control)

O=C1CCCC(O)=C1C(=O)c1cnc(-c2ccccc2)n(C2CC2)c1=O [Compound 90]
Plant response rating, Flood, Barnyardgrass [1, 12]: 30
Plant response rating, Barnyardgrass [1, 13]: 0
Plant response rating, Barnyardgrass [1, 14]: 15
Barnyardgrass plant response rating [1, 15]: 0
Plant response rating, Flood, Ducksalad [2, 12]: 90
Plant response rating, Ducksalad [2, 13]: 65
Plant response rating, Ducksalad [2, 14]: 80
Ducksalad plant response rating [2, 15]: 50
Plant response rating, Flood, Sedge, Umbrella [3, 12]: 80
Plant response rating, Sedge, Umbrella [3, 13]: 60
Plant response rating, Sedge, Umbrella [3, 14]: 75
Sedge, Umbrella plant response rating [3, 15]: 50
Plant response rating, Flood, Rice (rice (Oryza sativa); [12]): 0
Plant response rating, Rice (rice (Oryza sativa); [13]): 0
Plant response rating, Rice (rice (Oryza sativa); [14]): 0
Rice plant response rating (rice (Oryza sativa); [15]): 0
Plant response rating, Cocklebur [4, 16]: 75
Cocklebur plant response rating (0 to 100 scale) [4, 17]: 90
Plant response rating, Cocklebur [4, 18]: 100
Plant response rating, Cocklebur [4, 19]: 100
Plant response rating, Oat, Wild (wild oat (Avena fatua); [16]): 0
Oat, Wild plant response rating (0 to 100 scale) (wild oat (Avena fatua); [17]): 5
Plant response rating, Oat, Wild (wild oat (Avena fatua); [19]): 20
Plant response rating, Bermudagrass [5, 16]: 70
Bermudagrass plant response rating (0 to 100 scale) [5, 17]: 80
Plant response rating, Bermudagrass [5, 18]: 85
Plant response rating, Bermudagrass [5, 19]: 85
Plant response rating, Lambsquarters [6, 16]: 85
Lambsquarters plant response rating (0 to 100 scale) [6, 17]: 95
Plant response rating, Lambsquarters [6, 19]: 100
Plant response rating, Foxtail, Green [7, 16]: 65
Foxtail, Green plant response rating (0 to 100 scale) [7, 17]: 65
Plant response rating, Foxtail, Green [7, 19]: 90
Plant response rating, Pigweed [8, 16]: 85
Pigweed plant response rating (0 to 100 scale) [8, 17]: 98
Plant response rating, Pigweed [8, 19]: 100
Plant response rating, Foxtail, Giant [9, 16]: 65
Foxtail, Giant plant response rating (0 to 100 scale) [9, 17]: 70
Plant response rating, Foxtail, Giant [9, 19]: 85
Plant response rating, Soybean (soybean (Glycine max); [16]): 98
Soybean plant response rating (0 to 100 scale) (soybean (Glycine max); [17]): 98
Plant response rating, Soybean (soybean (Glycine max); [19]): 100
Plant response rating, Corn (corn (Zea mays); [16]): 15
Corn plant response rating (0 to 100 scale) (corn (Zea mays); [17]): 25
Plant response rating, Corn (corn (Zea mays); [18]): 45
Plant response rating, Corn (corn (Zea mays); [19]): 75
Plant response rating, Johnsongrass [10, 16]: 10
Johnsongrass plant response rating (0 to 100 scale) [10, 17]: 25
Plant response rating, Johnsongrass [10, 19]: 65
Plant response rating, Ragweed [11, 16]: 60
Ragweed plant response rating (0 to 100 scale) [11, 17]: 75
Plant response rating, Ragweed [11, 19]: 95
Plant response rating, Kochia (kochia (Kochia scoparia); [16]): 65
Kochia plant response rating (0 to 100 scale) (kochia (Kochia scoparia); [17]): 85
Plant response rating, Kochia (kochia (Kochia scoparia); [19]): 98
